Data on one compound can be found in US12644117B2, “Method of enabling pooled-library based nucleic acid constructs screening” (priority 2019, dated 2026).

The assay has as its system recombinant ACMNPV baculovirus. The assay is described as follows: Baculovirus spreading in Sf9 insect cells infected with YFP-expressing recombinant baculovirus, read by fluorescence microscopy. It counts as cell-based, Spodoptera Frugiperda. On the procedure:
A recombinant ACMNPV baculovirus was generated by homologous recombination and expressed a target fluorescent protein. The fluorescent protein was the Yellow Fluorescent Protein (YFP) from the organism Aequorea Victoria. • Three hours before infection 0.5 million Sf9 insect cells (ThermoFisher) were seeded into two wells of a 6 well-plate (ThermoFisher). Sf9 cells are cultivated in sf900 II media (ThermoFisher). • The initial viral stock titer was estimated to be approximately 1 million baculoviruses per milliliter. The recombinant baculovirus was added to the cells to reach a MOI of approximately 0.02. The added virus volume per well was 10 micolitre. The virus was resuspended in sf900 II media (ThermoFisher). • Cells were incubated in a 27° C. incubator. Four hours after infection, attached cells are washed with PBS to remove baculoviruses which have not penetrated into cells. The wash consisted of three times with 1 ml per cell of PBS media. • Chloroquine diphosphate salt (CC6628 from Sigma) was added to a final concentration of 0.8 mM. In the control condition insect cell media without chloroquine was added to the cells. Cells were incubated in a 27° C. incubator.
Fluorescence microscopy was performed 2 days after infection (FIG. 2A).
In the presence of chloroquine, the proportion of fluorescent cells is constant despite an increase of fluorescence intensity by cell (FIG. 2B), indicating accumulation of expressed YFP protein and virus without increasing the number of infected cells. […] In addition the virus produced high quality protein correctly folded within the individual cells.

Setting [1] is: MOI approximately 0.02, chloroquine 0.8 mM, five days after infection (FIG. 2B).

With `CCN(CC)CCCC(C)Nc1ccnc2cc(Cl)ccc12` (stereo not drawn) [chloroquine, Chloroquine], the “proportion of fluorescent cells” value (MOI approximately 0.02, chloroquine 0.8 mM added four hours after infection, 2 days after infection (FIG. 2A)) is recorded as “around 1%”. Under setting [1], the “fluorescence intensity by cell (accumulation of expressed YFP protein)” value is “increase” and the “proportion of fluorescent cells” value is “constant”.
